The nature of series [1]: Solubility in solvents and water. The class given is physicochemical.
The nature of series [2]: Emission and AIE properties in solvent mixtures. The class given is physicochemical. The text has this:
FIG. 2 depicts (A) Normalized absorption spectra of DCTB, DCPH and DNTPH in DMSO solution; (B) Normalized fluorescence (PL) spectra of DCTB, DCPH and DNTPH in aggregates; (C) Plot of the changes in fluorescence intensity with different water fraction (fw, in volume percentage, vol %), where I0 and I are the maximal fluorescence intensity recorded before and after adding water into the THF solution of DCTB. (D) Plot of the changes in fluorescence intensity with different toluene fractions (ft, in volume percentage, vol %), where I0 and I are the maximal fluorescence intensity recorded before and after adding toluene into the DMSO solution of DCPH and DNTPH respectively. [AIE dyes]=10 μM.
DCTB and DCPH were synthesized and their structure-activity relationship was investigated (FIG. 1).
However, to achieve a more obvious emission enhancement with low background signals, the TICT and AIE properties can be further modified. […] DNTPH was non-emissive in aqueous solution, and its NIR fluorescence at 683 nm was continuously intensified until the volume fraction of toluene (ft) […] was increased to about 40-fold (FIG. 2D). In addition, initial weedy fluorescence intensity of DNTPH in aqueous solution and the outstanding emission enhancement behavior in the aggregated state made it an ideal candidate for detecting protein fibrillogenesis, like Aβ aggregates.

Series [3] addresses Aβ42 fibril (Homo sapiens, UniProt P05067). Nature of the series: Fluorescent response upon binding to Aβ42 fibrils in phosphate buffer. To be noted: titrated with Aβ42 fibril in phosphate buffer; dye 1 μM. The procedure:
FIG. 4 depicts determination of the binding constant of DNTPH for Aβ42 aggregates. (A) Plot of the PL intensity as a function of the concentration of DNTPH in the presence of Aβ42 aggregates (3 μM) in PBS solution (pH=7.4); (B)Response time of DNTPH binding to Aβ42 aggregates. […] (D) Ultrahigh S/N ratio of DNTPH toward Aβ42 aggregates compared to the background signals in PBS and that towards BSA.
It was investigated whether DNTPH has a fluorescent response upon binding to Aβ aggregates. When DNTPH was titrated with the Aβ42 fibril in phosphate buffer, a strong and progressive increase (up to about 18-fold) in red fluorescence intensity concomitant was observed, which took ˜30 min to reach a plateau. Without wishing to be bound by theory, it is believed that DNTPH is capable of binding hydrophobic surfaces in aggregated amyloid fibrils with the help of the binding unit, resulting in the decrease of conformational freedom and rotational restriction. […] That is because these three probes show high background signals, which results in low S/N ratio even with a decent fluorescent response to testing objects.

Series [4] concerns PC12 cell. Nature of the series: MTT cytotoxicity assay in PC12 cells. The class given is cell-based. The procedure:
FIG. 7 depicts (A) Cytotoxicity towards […] PC-12 cells of Aβ monomer under 24 h and 48 h incubation. (B) Cytotoxicity of Aβ fibrils under 24 h and 48 h incubation. […] (D) Cell viability of different concentrations of DNTPH towards PC-12 cells under 24 h and 48 h incubation.
For orientation: Formazan colour is commonly taken as a measure of viable cells.

The source of these data is patent publication US12433962B2, “Probes for imaging b-amyloid and inhibition of β-amyloid aggregation” (The Hong Kong University of Science and Technology, priority 2021, dated 2025).

Sequence of Aβ42 fibril (P05067 672-713 limits assumed): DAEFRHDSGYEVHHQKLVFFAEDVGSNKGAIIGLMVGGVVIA

For `CCN(CC)c1ccc2cc(C=Cc3cc[n+](CCO)cc3)c(=O)oc2c1.[Br-]` [DCPH], in series [1], the solubility result is “more soluble in water and polar solvent”. The emission maximum in series [2] worked out at 690 nm. Further, the “PL intensity enhancement in aggregates compared with DMSO solution” value in series [2] (DMSO/toluene mixtures, 99% toluene fraction (ft)) is on record as “about 2 fold”.

For `CCN(CC)c1ccc2cc(C=C(C#N)c3nc4ccccc4s3)c(=O)oc2c1` [DCTB], the solubility result in series [1] was “soluble in THF but aggregated in water”. Further, in series [2], the emission maximum is reported as 601 nm. For the same molecule, the “AIE effect, fluorescence intensity increase” value in series [2] (THF/water, water fraction (fw) 70%) is on record as “less than 2 fold”.

As to `Cc1ccc2c(c1)sc(-c1ccc(N(C)C)cc1)[n+]2C.[Cl-]` [ThT, thioflavin T], in series [3], the “increase in fluorescence intensity (fluorescent response) to Aβ42 fibril” value was 5 fold.

In the case of Aβ monomer: monomeric amyloid-β peptide, in series [4] (20 μM, 48 h incubation), the cell death was 50%. In addition, in series [4] (5-20 μM, less than 24 h of exposure), the cytotoxicity result is on record as “No significant cytotoxicity”.
